Results: PMC6925632 (Cell chemical biology, 2019)

What was measured:
FOXO3a-GFP = test: FOXO3a translocation in MCF-7 cells; conditions: E2 10 nM, G-1 100 nM, AB-1 1 μM, EGF 50 ng/mL
[1] = tested on: uterus of ovariectomized mice; test: Mouse uterine estrogenicity: uterine wet weight; type: in vivo; conditions: dose of 10 ng; subcutaneous; 18 h
ERβ-GFP [2] = conditions: COS7 cells; 1 nM E2 or 1 μM AB-1
ERβ-GFP [3] = conditions: COS7 cells; 1 nM E2 or 1 μM AB-1; 15 min
ERβ-GFP [4] = tested on: ERβ-GFP
GPER over ERα = conditions: ref Dennis et al., 2011; cited from earlier work
ERα = molecular target: T1, ERα (Homo sapiens, UniProt P03372); conditions: MCF-7 cells; 24 h; Western blot
T1 sequence (P03372 1-595): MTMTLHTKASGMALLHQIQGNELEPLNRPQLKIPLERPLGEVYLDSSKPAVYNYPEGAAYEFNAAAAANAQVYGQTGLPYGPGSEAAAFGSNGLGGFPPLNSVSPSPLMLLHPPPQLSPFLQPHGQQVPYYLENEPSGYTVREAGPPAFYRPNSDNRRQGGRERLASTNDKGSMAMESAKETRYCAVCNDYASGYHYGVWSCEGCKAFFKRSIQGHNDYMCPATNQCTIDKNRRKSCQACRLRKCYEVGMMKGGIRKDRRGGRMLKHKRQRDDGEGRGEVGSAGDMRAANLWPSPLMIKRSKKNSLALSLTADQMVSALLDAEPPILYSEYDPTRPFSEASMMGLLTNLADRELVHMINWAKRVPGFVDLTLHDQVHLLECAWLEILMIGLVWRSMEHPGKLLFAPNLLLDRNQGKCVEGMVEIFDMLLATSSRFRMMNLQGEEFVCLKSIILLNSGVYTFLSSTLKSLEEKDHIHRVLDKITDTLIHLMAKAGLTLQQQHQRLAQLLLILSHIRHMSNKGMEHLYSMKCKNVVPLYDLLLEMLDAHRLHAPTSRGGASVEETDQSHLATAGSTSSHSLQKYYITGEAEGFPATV

ERα over ERβ = conditions: ref Stauffer et al., 2000; cited from earlier work

Compound: C[C@]12CC[C@@H]3c4ccc(O)cc4CC[C@H]3[C@@H]1CC[C@@H]2O [E2, 17β-estradiol]
- FOXO3a translocation from nucleus to cytoplasm (FOXO3a-GFP): stimulated cytosolic translocation
- Imbibition response [1]: strong imbibition response
- Induction of calcium mobilization, ERβ (ERβ-GFP [2]): induced rapid calcium mobilization
- PI3K activation (nuclear translocation of PH-mRFP1), ERβ (ERβ-GFP [3]): induced strong nuclear localization of the PH-mRFP1 reporter
- Block of E2-Alexa633 binding to ERβ-GFP (confocal) (ERβ-GFP [4]): blocked binding of E2-Alexa633

Compound: CC(=O)c1ccc2c(c1)[C@@H]1C=CC[C@@H]1[C@H](c1cc3c(cc1Br)OCO3)N2 [G-1]
- FOXO3a translocation from nucleus to cytoplasm (FOXO3a-GFP): stimulated cytosolic translocation
- Selectivity for GPER over ERα (GPER over ERα): > 10^5 fold

Compound: C[C@]12CC[C@@H]3c4ccc(O)cc4C[C@@H](CCCCCCCCC[S+]([O-])CCCC(F)(F)C(F)(F)F)[C@H]3[C@@H]1CC[C@@H]2O (stereo partly shown) [ICI182,780]
- Effect on ERα levels (ERα): potently decreased

Compound: CCCc1c(-c2ccc(O)cc2)nn(-c2ccc(O)cc2)c1-c1ccc(O)cc1 [PPT]
- Selectivity for ERα over ERβ (ERα over ERβ): about 400 fold

Compound: EGF: growth factor that stimulates the PI3K pathway (NSDSECPLSHDGYCLHDGVCMYIEALDKYACNCVVGYIGERCQYRDLKWWELR; UniProt P01133 971-1023, looked up)
- FOXO3a translocation from nucleus to cytoplasm (FOXO3a-GFP): translocated from the nucleus to the cytoplasm
